Source: article PMC9848300, “Discovery of novel enasidenib analogues targeting inhibition of mutant isocitrate dehydrogenase 2 as antileukaemic agents” (Journal of Enzyme Inhibition and Medicinal Chemistry, 2023)

Assays:
MDA-MB-468 = test: NCI 60 antitumor screening (single dose / five doses); assay type: cell-based; settings: Homo sapiens; MDA-MB-468 (breast cancer), single dose 10 μM; read-out: Growth inhibition percentage (GI %)
UACC-257 = test: as above; assay type: cell-based; settings: Homo sapiens; UACC-257 (melanoma), single dose 10 μM; read-out: Growth inhibition percentage (GI %)
ACHN = test: as above; assay type: cell-based; settings: Homo sapiens; ACHN (renal cancer), single dose 10 μM; read-out: Growth inhibition percentage (GI %)
SK-MEL-5 = test: as above; assay type: cell-based; settings: Homo sapiens; SK-MEL-5 (melanoma), single dose 10 μM; read-out: Growth inhibition percentage (GI %)
EKVX = test: as above; assay type: cell-based; settings: Homo sapiens; EKVX (non-small cell lung cancer), single dose 10 μM; read-out: Growth inhibition percentage (GI %)
HCT-15 = test: as above; assay type: cell-based; settings: Homo sapiens; HCT-15 (colon cancer), single dose 10 μM; read-out: Growth inhibition percentage (GI %)
UO-31 = test: as above; assay type: cell-based; settings: Homo sapiens; UO-31 (renal cancer), single dose 10 μM; read-out: Growth inhibition percentage (GI %)
COLO 205 = test: as above; assay type: cell-based; settings: Homo sapiens; COLO 205 (colon cancer), single dose 10 μM; read-out: Growth inhibition percentage (GI %)
MOLT-4 = test: as above; assay type: cell-based; settings: Homo sapiens; MOLT-4 (leukaemia), single dose 10 μM; read-out: Growth inhibition percentage (GI %)
786-0 = test: as above; assay type: cell-based; settings: Homo sapiens, 786-0, 786-0 (renal cancer), single dose 10 μM; read-out: Growth inhibition percentage (GI %)
UACC-62 = test: as above; assay type: cell-based; settings: Homo sapiens; UACC-62 (melanoma), single dose 10 μM; read-out: Growth inhibition percentage (GI %)
RXF 393 = test: as above; assay type: cell-based; settings: Homo sapiens; RXF 393 (renal cancer), single dose 10 μM; read-out: Growth inhibition percentage (GI %)
HL-60(TB) = test: as above; assay type: cell-based; settings: Homo sapiens; HL-60(TB) (leukaemia), single dose 10 μM; read-out: Growth inhibition percentage (GI %)
MDA-MB-231/ATCC = test: as above; assay type: cell-based; settings: Homo sapiens; MDA-MB-231/ATCC (breast cancer), single dose 10 μM; read-out: Growth inhibition percentage (GI %)
SW-620 = test: as above; assay type: cell-based, human; settings: Homo sapiens; SW-620 (colon cancer), single dose 10 μM; read-out: Growth inhibition percentage (GI %)
BT-549 = test: as above; assay type: cell-based; settings: Homo sapiens; BT-549 (breast cancer), single dose 10 μM; read-out: Growth inhibition percentage (GI %)
IGROV1 = test: as above; assay type: cell-based; settings: Homo sapiens, IGROV-1; IGROV1 (ovarian cancer), single dose 10 μM; read-out: Growth inhibition percentage (GI %)
LOX IMVI = test: as above; assay type: cell-based; settings: Homo sapiens; LOX IMVI (melanoma), single dose 10 μM; read-out: Growth inhibition percentage (GI %)
K-562 = test: as above; assay type: cell-based; settings: Homo sapiens, K562; K-562 (leukaemia), single dose 10 μM; read-out: Growth inhibition percentage (GI %)
HT29 = test: as above; assay type: cell-based, human; settings: Homo sapiens, HT-29; HT29 (colon cancer), single dose 10 μM; read-out: Growth inhibition percentage (GI %)
RPMI-8226 = test: as above; assay type: cell-based; settings: Homo sapiens; RPMI-8226 (leukaemia), single dose 10 μM; read-out: Growth inhibition percentage (GI %)
SF-295 = test: as above; assay type: cell-based; settings: Homo sapiens; SF-295 (CNS cancer), single dose 10 μM; read-out: Growth inhibition percentage (GI %)
PC-3 = test: NCI 60 antitumor screening (single dose); assay type: cell-based; settings: Homo sapiens; PC-3 (prostate cancer), single dose 10 μM; read-out: Growth inhibition percentage (GI %)
Outline: (§1)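 Compounds were tested at a single 10 μM dose against the NCI 60-cell-line panel (nine tumour types), in triplicate. Growth was recorded as percent growth (G%) of treated cells, and growth inhibition was taken as GI% = 100 − G%.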

HOP-62 = test: NCI 60 antitumor screening (single dose); assay type: cell-based; settings: Homo sapiens; HOP-62 (non-small cell lung cancer), single dose 10 μM; read-out: Growth inhibition percentage (GI %)
Outline: (§2)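 GI% derived as 100 − G% from triplicate growth measurements in the NCI 60 human tumour panel, compound 10 μM, single dose, per NCI protocol.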

OVCAR-8 = test: NCI 60 antitumor screening (single dose); assay type: cell-based; settings: Homo sapiens; OVCAR-8 (ovarian cancer), single dose 10 μM; read-out: Growth inhibition percentage (GI %)
Outline: as §1

HCC-2998 = test: NCI 60 antitumor screening (single dose); assay type: cell-based; settings: Homo sapiens; HCC-2998 (colon cancer), single dose 10 μM; read-out: Growth inhibition percentage (GI %)
Outline: as §2

NCI-H460 = test: NCI 60 antitumor screening (single dose); assay type: cell-based; settings: Homo sapiens; NCI-H460 (non-small cell lung cancer), single dose 10 μM; read-out: Growth inhibition percentage (GI %)
Outline: as §2

TK-10 = test: NCI 60 antitumor screening (single dose); assay type: cell-based; settings: Homo sapiens; TK-10 (renal cancer), single dose 10 μM; read-out: Growth inhibition percentage (GI %)
Outline: as §1

Row | Compound | inhibition at 10 µM (MDA-MB-468) [%] | inhibition at 10 µM (UACC-257) [%] | inhibition at 10 µM (ACHN) [%] | inhibition at 10 µM (SK-MEL-5) [%] | inhibition at 10 µM (EKVX) [%] | inhibition at 10 µM (HCT-15) [%] | inhibition at 10 µM (UO-31) [%] | inhibition at 10 µM (COLO 205) [%] | inhibition at 10 µM (MOLT-4) [%] | inhibition at 10 µM (786-0) [%] | inhibition at 10 µM (UACC-62) [%] | inhibition at 10 µM (RXF 393) [%] | inhibition at 10 µM (HL-60(TB)) [%] | inhibition at 10 µM (MDA-MB-231/ATCC) [%] | inhibition at 10 µM (SW-620) [%] | inhibition at 10 µM (BT-549) [%] | inhibition at 10 µM (IGROV1) [%] | inhibition at 10 µM (LOX IMVI) [%] | inhibition at 10 µM (K-562) [%] | inhibition at 10 µM (HT29) [%] | other results
1 | O=C1Nc2ccc(Cl)cc2/C1=N\Nc1nc(N/N=C2/C(=O)Nc3ccc(Cl)cc32)nc(N2CCOCC2)n1 [compound 8b, (3E)-5-Chloro-3-[2–(4-{2-[(3E)-5-chloro-2-oxo-2,3-dihydro-1H-indol-3-ylidene]hydrazin-1-yl}6-(morpholin-4-yl)-1,3,5-triazin-2-yl)hydrazin-1-ylidene]-2,3-dihydro-1H-indol-2-one] | 76.4 | 18 | 25.5 | 53.9 | 14.8 | 8.4 | 21.4 | 51.3 | 37.5 | 26.3 | 48.4 | 86.3 | 27.8 | 63.7 | 25.7 | 106 | 45 | 76.8 | 67.1 | 8.9 | inhibition at 10 µM (RPMI-8226): 63.6%; inhibition at 10 µM (SF-295): 54.4%; inhibition at 10 µM (PC-3): 43.9%; inhibition at 10 µM (HOP-62): 62.4%; inhibition at 10 µM (OVCAR-8): 49.9%; inhibition at 10 µM (HCC-2998): 24.5%; inhibition at 10 µM (NCI-H460): 11.8%; inhibition at 10 µM (TK-10): -18.5%
2 | Fc1cccc(/C=N/Nc2nc(N/N=C/c3cccc(F)c3)nc(N3CCCCC3)n2)c1 [compound 7e, 2,4-Bis[(E)-2-[(3-Fluorophenyl)methylidene]hydrazin-1-yl]-6-(piperidin-1-yl)-1,3,5-triazine] | 9.17 | -0.08 | 8.6 | 32.1 | 29.3 | 29.2 | 22.1 | -0.08 | 40.4 | 10.5 | 25.8 | -12.5 | 31.9 | -0.43 | -7.5 | -5.92 | 9.61 | 14.2 | 38.6 | 8.7 | inhibition at 10 µM (RPMI-8226): 38.8%; inhibition at 10 µM (SF-295): 15.6%; inhibition at 10 µM (PC-3): 31.4%; inhibition at 10 µM (HOP-62): -7.48%; inhibition at 10 µM (OVCAR-8): 14.6%; inhibition at 10 µM (HCC-2998): 0.77%; inhibition at 10 µM (NCI-H460): 8.63%; inhibition at 10 µM (TK-10): -20.6%
3 | Brc1ccccc1/C=N/Nc1nc(N/N=C/c2ccccc2Br)nc(N2CCOCC2)n1 [compound 6b, 2,4-Bis[(E)-2-[(2-bromophenyl)methylidene]hydrazin-1-yl]-6-(morpholin-4-yl)-1,3,5-triazine] | 9.74 | -3.93 | 6.36 | 30.4 | 19.8 | 18.9 | 21.4 | 13.9 | 27.4 | 38.7 | -2.17 | 30.4 | 19.5 | -3.3 | 3.31 | -6.54 | 10.3 | -2.7 | 5.94 | 26 | inhibition at 10 µM (RPMI-8226): 35%; inhibition at 10 µM (SF-295): 14.5%; inhibition at 10 µM (PC-3): 16%; inhibition at 10 µM (HOP-62): -8.36%; inhibition at 10 µM (OVCAR-8): 3.39%; inhibition at 10 µM (HCC-2998): 29.1%; inhibition at 10 µM (NCI-H460): -2.92%; inhibition at 10 µM (TK-10): 0.58%
4 | Fc1cccc(/C=N/Nc2nc(N/N=C/c3cccc(F)c3)nc(N3CCOCC3)n2)c1 [compound 6e, 2,4-Bis[(E)-2-[(3-Fluorophenyl)methylidene]hydrazin-1-yl]-6-(morpholin-4-yl)-1,3,5-triazine] | 11.5 | 6.59 | 20.9 | 27.9 | 10.9 | 52.5 | 30.3 | 37.4 | 33.9 | 54 | -5.24 | 79.3 | 50.9 | 3.49 | 34 | 11.6 | 18.4 | 0.67 | 35.3 | 53.5 | inhibition at 10 µM (RPMI-8226): 33%; inhibition at 10 µM (SF-295): -8.45%; inhibition at 10 µM (PC-3): 24.5%; inhibition at 10 µM (HOP-62): -5.63%; inhibition at 10 µM (OVCAR-8): 8.56%; inhibition at 10 µM (HCC-2998): -2.3%; inhibition at 10 µM (NCI-H460): 5.44%; inhibition at 10 µM (TK-10): -28.1%
5 | Clc1cccc(/C=N/Nc2nc(N/N=C/c3cccc(Cl)c3)nc(N3CCCCC3)n2)c1 [compound 7d, 2,4-Bis[(E)-2-[(3-Chlorophenyl)methylidene]hydrazin-1-yl]-6-(piperidin-1-yl)-1,3,5-triazine] | 23.7 | -11.1 | -1.44 | 19.4 | 21.6 | 20.2 | 23.2 | -1.88 | 31.3 | 4.76 | 20.8 | 6.56 | 3.01 | -16.1 | -2.95 | 5.13 | -4.79 | -4.97 | 17 | 14.4 | inhibition at 10 µM (RPMI-8226): 27.6%; inhibition at 10 µM (SF-295): 7.02%; inhibition at 10 µM (PC-3): 24%; inhibition at 10 µM (HOP-62): -4.1%; inhibition at 10 µM (OVCAR-8): 10.8%; inhibition at 10 µM (HCC-2998): -8.18%; inhibition at 10 µM (NCI-H460): 3.48%; inhibition at 10 µM (TK-10): -6.48%
